From patent US10167306B2, “Crystalline form of 1-(beta-D-glucopyranosyl)-4-methyl-3-[5-(4-fluorophenyl)-2-thienylmethyl]benzene and preparation method thereof” (SHANGHAI DESANO PHARMACEUTICALS INVESTMENT CO., LTD, priority 2015, dated 2019)

Experiments:
[1] = Crystalline form competition experiment: 1:1 mixture of form W and hemihydrate form suspended in water, XRPD comparison; format: physicochemical
Description: (§1) X-ray powder diffraction instrument: Brucker D8 advance X-ray powder diffraction; radiation source: copper target (α=1.540600 Å), scanning at room temperature; voltage: 40 kv; Current: 40 mA; starting 2θ: 2.000°, scanning range: 2.0000-50.000°; step size: 0.020°; measuring time: 12.6 seconds/step.
Crystalline forms W of canagliflozin prepared in Examples 1-7 were mixed with the hemihydrate crystalline of canagliflozin (the product after crystallization) prepared in Example 1 in WO2008069327 in a ratio of 1:1, and the mixtures were suspended in water of 20° C. and 60° C. for 4 days, respectively.

[2] = Suspension of crystalline form W in water, XRPD comparison; format: physicochemical; conditions: suspended in water of 20° C. and 60° C. for 4 days; form W prepared in Example 1; FIG. 5
Description: as §1
Crystalline forms W of canagliflozin prepared in Examples 1-7 were suspended in water of 20° C. and 60° C. for 4 days.

SMILES	relative stability in the crystalline form competition experiments ([1]; versus hemihydrate crystalline form, 1:1 mixture in water of 20° C. and 60° C. for 4 days)	stability of crystalline form (XRPD pattern) after suspending in water [2]	crystalline form transformation in the 1:1 mixture (XRPD pattern) ([1]; 1:1 mixture of form W (Example 1) and hemihydrate form of WO2008069327, suspended in water of 20° C. and 60° C. for 4 days, FIG. 6)
Cc1ccc([C@@H]2O[C@H](CO)[C@@H](O)[C@H](O)[C@H]2O)cc1Cc1ccc(-c2ccc(F)cc2)s1 [crystalline form W, 1-(β-D-glucopyranosyl)-4-methyl-3-[5-(4-fluorophenyl)-2-thienylmethyl]benzene]	better stability	excellent stability	
Cc1ccc([C@@H]2O[C@H](CO)[C@@H](O)[C@H](O)[C@H]2O)cc1Cc1ccc(-c2ccc(F)cc2)s1 [hemihydrate crystalline form, 1-(β-D-glucopyranosyl)-4-methyl-3-[5-(4-fluorophenyl)-2-thienylmethyl]benzene, reference compound]			completely transformed into crystalline form W
